This is an account of results in publication PMC7002685, “Inhibition of vascular calcification by inositol phosphates derivatized with ethylene glycol oligomers” (Nature Communications, 2020).

For one series, the target named is T1, Opiate δ1 (OP1, DOP) (Homo sapiens, UniProt P41143).
T1 construct: purchased Eurofins Panlabs Discovery Services Taiwan, Ltd
Briefly: Off-target 260130. In kind it is binding. The protocol: (§1) The potential off-target activity of 10 µM (OEG2)2-IP4 was assessed against a panel of 87 enzymes, receptors, or ion channels that are used in standard safety pharmacology screens.
(§2) 3.2. Off-target screening assay
(§3) The experiments were conducted by a contract research organization (Eurofins Panlabs Discovery
(§4) Services Taiwan, Ltd.) and details on the respective assays can be retrieved via the catalog number
(§5) provided in Supplementary Table 11 from the company’s webpage
(§6) (https://www.eurofinsdiscoveryservices.com/). […]

Series [1] can be described thus: 18F-NaF micro-PET/CT uptake on calcified human femoral arteries ex vivo. It is filed as binding. How it is done: To investigate (OEG2)2-IP4 interaction with calcified tissues in a clinically relevant context, a competitive binding assay using ^18F-NaF was applied on severely calcified human femoral arteries and native aortic valves ex vivo. […] First, ^18F-NaF uptake was measured on tissue samples treated with vehicle (human serum) and thereafter, using the same tissue samples, treated with (OEG2)2-IP4 in serum.
Triplicate aliquots of CPP2s (20 µg Ca/mL) in 100 μL assay buffer (100 mM HBS, pH 7.4 (RT)) were incubated for 1 h at RT in the presence of increasing concentrations of compounds in 50 μL Milli-Q water and ^18F-NaF (1 nM) in 50 μL assay buffer, resulting in a total incubation volume of 200 μL (^18F-NaF was prepared using a FASTlab synthesizer (GE Healthcare, Little Chalfont, UK) and commercially available ^18F-NaF cassettes (GE Healthcare)). Maximum radiotracer binding was determined by incubating CPP2s with ^18F-NaF (1 nM) only. The reaction was terminated by rapid filtration through a SOLAμ™ SPE plate (HRP 2 mg/mL 96-well plate, 22 μm; Thermo Fisher Scientific). SPE individual column matrices were washed twice rapidly in assay buffer and radioactivity on the filters determined by an automatic gamma counter (Wizard2 Gamma Counter, Perkin Elmer, Waltham, MA, USA). […]

For another series, the target named is T2, Dopamine D2L (Homo sapiens, UniProt P14416).
T2 construct: purchased Eurofins Panlabs Discovery Services Taiwan, Ltd
T2 sequence (P14416 whole entry): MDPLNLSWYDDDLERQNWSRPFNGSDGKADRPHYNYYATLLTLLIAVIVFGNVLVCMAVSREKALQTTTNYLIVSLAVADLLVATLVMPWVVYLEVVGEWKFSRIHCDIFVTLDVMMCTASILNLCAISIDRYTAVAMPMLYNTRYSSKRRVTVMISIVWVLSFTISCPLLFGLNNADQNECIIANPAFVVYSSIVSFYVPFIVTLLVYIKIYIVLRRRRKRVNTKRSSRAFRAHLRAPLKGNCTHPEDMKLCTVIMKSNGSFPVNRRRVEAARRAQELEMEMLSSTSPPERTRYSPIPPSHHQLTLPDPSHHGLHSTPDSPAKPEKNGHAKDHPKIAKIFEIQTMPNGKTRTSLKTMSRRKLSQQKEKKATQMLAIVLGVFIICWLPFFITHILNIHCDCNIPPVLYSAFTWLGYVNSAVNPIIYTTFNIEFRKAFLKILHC
Briefly: Off-target 219500 (D2L). It is filed as binding. How it is done: as §1, §2, §3, §4, §5, §6

Series [2] has as its system TNFα release from THP-1-derived macrophages. As to the kind of experiment: TNFα release from macrophages, compound without CPP2. In kind it is cell-based, human. To be noted: without combined CPP2 treatment. How it is done:
THP-1 cells were plated at a density of 200,000 cells/well in a 24-well plate, differentiated as stated above, and subsequently treated with or without CPP2 (50 μg Ca/mL) in complete medium with or without test compounds (3, 10, 30, 100 μM) for 24 h at 37 °C, 5% CO2.
Human TNF-α was assayed in cell culture supernatants using commercial multiplex immunoassay kits (U-Plex of TNF-α (custom-made multiplex plate) and Human TNF- Kit (K151QWD-1), both from MesoScaleDiscovery, Rockville, MD, USA), and corrected for total protein content using the Micro BCA^TM Protein Assay Kit. […]
Data are expressed as
mean ± s.d. (n = 3 independent experiments).

Series [3] concerns the target T3, Serotonin (5-Hydroxytryptamine) 5-HT2A (Homo sapiens, UniProt P28223).
T3 construct: purchased Eurofins Panlabs Discovery Services Taiwan, Ltd
As to the kind of experiment: Off-target 271650. In kind it is binding. How it is done: as §1, §2
(§7) The experiments were conducted by a contract research organization (Eurofins Panlabs Discovery Services Taiwan, Ltd.) and details on the respective assays can be retrieved via the catalog number provided in Supplementary Table 11 from the company’s webpage
as §6
(§8) At sacrifice the left tibia of animals of the rat model with dietary adenine/high-phosphate-induced uremia and VC was collected, fixed with 70% v/v EtOH and embedded in methyl methacrylate. The trabecular bone compartment is known to be the most metabolic active i.e. actively re-structured bone compartment in CKD. Therefore, histomorphometric and micro-computed tomography (µCT) analysis of bone was performed on the trabecular compartment. Tibial sections were Goldner-stained for histomorphometric analysis of the proximal metaphysis using the AxioVision Release 4.5 software, as […]
(§9) described previously5. […]

A further series deals with T4, Cannabinoid CB1 (Homo sapiens, UniProt P21554).
T4 construct: purchased Eurofins Panlabs Discovery Services Taiwan, Ltd
T4 sequence (P21554 whole entry): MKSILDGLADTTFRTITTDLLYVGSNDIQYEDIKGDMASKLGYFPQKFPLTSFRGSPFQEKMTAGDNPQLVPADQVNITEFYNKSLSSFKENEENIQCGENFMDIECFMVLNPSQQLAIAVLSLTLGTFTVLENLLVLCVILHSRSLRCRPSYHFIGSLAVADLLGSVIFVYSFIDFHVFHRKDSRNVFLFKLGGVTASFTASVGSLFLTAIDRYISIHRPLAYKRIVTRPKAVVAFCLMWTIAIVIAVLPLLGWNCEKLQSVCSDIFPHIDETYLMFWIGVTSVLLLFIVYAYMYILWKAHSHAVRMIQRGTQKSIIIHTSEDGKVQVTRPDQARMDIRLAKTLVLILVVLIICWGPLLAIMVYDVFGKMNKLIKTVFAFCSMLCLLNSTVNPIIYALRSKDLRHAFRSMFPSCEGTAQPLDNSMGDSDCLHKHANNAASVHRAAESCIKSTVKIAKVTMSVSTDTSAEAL
As to the kind of experiment: Off-target 217030. In kind it is binding. The protocol:
as §1, §2, §7, §6, §8, §9

Series [4] has as its target T5, Cholecystokinin CCK1 (CCKA) (Homo sapiens, UniProt P32238).
T5 construct: purchased Eurofins Panlabs Discovery Services Taiwan, Ltd
As to the kind of experiment: Off-target 218030. It is filed as binding. How it is done:
as §1, §2, §7, §6, §8, §9

For the next series, the target named is T6, Angiotensin AT1 (Homo sapiens, UniProt P30556).
T6 construct: purchased Eurofins Panlabs Discovery Services Taiwan, Ltd
T6 sequence (P30556 whole entry): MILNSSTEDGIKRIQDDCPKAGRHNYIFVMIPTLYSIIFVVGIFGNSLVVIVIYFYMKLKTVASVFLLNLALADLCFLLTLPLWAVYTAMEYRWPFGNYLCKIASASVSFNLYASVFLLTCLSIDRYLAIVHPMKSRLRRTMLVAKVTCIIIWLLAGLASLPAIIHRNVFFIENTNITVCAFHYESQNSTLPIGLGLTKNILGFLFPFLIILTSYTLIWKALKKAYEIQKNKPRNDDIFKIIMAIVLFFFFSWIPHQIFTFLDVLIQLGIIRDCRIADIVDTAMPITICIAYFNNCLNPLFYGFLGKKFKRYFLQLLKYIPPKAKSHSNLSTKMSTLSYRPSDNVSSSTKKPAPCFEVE
As to the kind of experiment: Off-target 210030. In kind it is binding. The protocol:
as §1, §2, §7, §6, §8, §9

For series [5], the target named is T7, Serotonin (5-Hydroxytryptamine) 5-HT3 (Homo sapiens, UniProt P46098).
T7 construct: purchased Eurofins Panlabs Discovery Services Taiwan, Ltd
T7 sequence (P46098 24-478): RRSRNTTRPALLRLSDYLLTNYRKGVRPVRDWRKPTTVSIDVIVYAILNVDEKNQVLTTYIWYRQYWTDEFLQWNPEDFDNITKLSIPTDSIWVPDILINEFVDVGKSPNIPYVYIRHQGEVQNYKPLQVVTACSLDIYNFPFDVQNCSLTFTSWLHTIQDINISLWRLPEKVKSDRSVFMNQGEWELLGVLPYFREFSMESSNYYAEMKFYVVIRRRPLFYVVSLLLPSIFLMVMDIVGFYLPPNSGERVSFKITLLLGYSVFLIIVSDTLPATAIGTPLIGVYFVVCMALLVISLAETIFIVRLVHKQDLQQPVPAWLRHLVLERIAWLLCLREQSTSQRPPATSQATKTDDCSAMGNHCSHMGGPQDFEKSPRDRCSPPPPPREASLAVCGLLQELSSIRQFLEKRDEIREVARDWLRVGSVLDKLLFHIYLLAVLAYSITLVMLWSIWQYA
Briefly: Off-target 271910. In kind it is binding. How it is done:
as §1, §2, §3, §4, §5, §6

In another series the test system is Glutamate, NMDA, Agonism. Briefly: Off-target 232810. In kind it is binding, Rat. To be noted: 10 µM. How it is done: as §1, §2, §7, §6, §8, §9
Series [6] can be described thus: Urinary excretion after s.c. administration. To be noted: 10 mg/kg s.c.; for Cumulative recovery from rat urine / dose excreted: healthy rats; for dose excreted: rat, urine, subcutaneous, 10 mg/kg, read-out: Cumulative recovery from rat urine. In kind it is in vivo, rat. The protocol: To study urinary excretion, six animals were administered s.c. 10 mg/kg of (OEG2)2-IP4 and two animals served as blank urine controls. Animals were placed in separated metabolic cages ([…] S.p.A. Buguggiate, Italy) right after dosing, left there for the entire experiment, and urine was collected after 2, 5, 8, and 24 h. At the end of the experiment, cages were washed with 10 mL water and the washes were collected in separated tubes. Urine samples were centrifuged at 3000 × g and 4 °C for 10 min and stored at −20 °C until quantification of (OEG2)2-IP4 by LC-MS/MS. Recovery (%) was calculated using Eq. (2).2 Recovery%=OEG22IP4μg/doseμg×ratweightkg×100.

For another series, the target named is T8, PPARγ (Homo sapiens, UniProt P37231).
T8 construct: purchased Eurofins Panlabs Discovery Services Taiwan, Ltd
T8 sequence (P37231 whole entry): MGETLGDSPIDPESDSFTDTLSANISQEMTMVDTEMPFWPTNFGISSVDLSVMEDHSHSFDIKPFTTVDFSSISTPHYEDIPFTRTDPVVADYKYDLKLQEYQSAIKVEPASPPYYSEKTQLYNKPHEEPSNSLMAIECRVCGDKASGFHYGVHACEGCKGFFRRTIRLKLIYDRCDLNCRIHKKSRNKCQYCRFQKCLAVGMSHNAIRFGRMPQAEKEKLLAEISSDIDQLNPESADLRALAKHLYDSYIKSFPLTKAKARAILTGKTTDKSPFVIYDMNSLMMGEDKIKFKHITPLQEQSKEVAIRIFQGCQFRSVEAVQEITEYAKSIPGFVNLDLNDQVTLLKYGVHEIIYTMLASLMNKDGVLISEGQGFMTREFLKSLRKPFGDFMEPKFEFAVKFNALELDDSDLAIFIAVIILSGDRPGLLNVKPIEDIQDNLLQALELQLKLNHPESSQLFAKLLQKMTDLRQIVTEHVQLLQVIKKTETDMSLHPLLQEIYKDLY
As to the kind of experiment: Off-target 267500. It is filed as binding. The protocol:
as §1, §2, §7, §6, §8, §9

For series [7], the target named is T9, Transporter, Serotonin (5-Hydroxytryptamine) (SERT) (Homo sapiens, UniProt P31645).
T9 construct: purchased Eurofins Panlabs Discovery Services Taiwan, Ltd
T9 sequence (P31645 whole entry): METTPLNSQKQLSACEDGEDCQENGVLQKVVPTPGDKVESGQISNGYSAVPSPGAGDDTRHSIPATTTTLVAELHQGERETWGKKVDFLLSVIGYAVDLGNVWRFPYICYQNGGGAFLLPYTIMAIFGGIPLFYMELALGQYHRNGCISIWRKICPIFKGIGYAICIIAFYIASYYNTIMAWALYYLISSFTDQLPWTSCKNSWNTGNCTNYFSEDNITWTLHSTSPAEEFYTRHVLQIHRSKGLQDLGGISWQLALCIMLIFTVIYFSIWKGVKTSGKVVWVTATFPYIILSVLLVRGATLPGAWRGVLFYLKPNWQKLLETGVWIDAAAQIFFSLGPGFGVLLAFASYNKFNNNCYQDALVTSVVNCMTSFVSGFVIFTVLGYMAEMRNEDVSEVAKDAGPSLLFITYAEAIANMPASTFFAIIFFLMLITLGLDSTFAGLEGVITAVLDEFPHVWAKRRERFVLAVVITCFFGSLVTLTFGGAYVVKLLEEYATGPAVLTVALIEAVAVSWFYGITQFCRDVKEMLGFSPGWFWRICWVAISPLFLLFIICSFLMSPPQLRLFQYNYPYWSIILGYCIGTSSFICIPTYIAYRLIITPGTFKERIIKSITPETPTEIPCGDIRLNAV
Briefly: Off-target 274030. It is filed as binding. How it is done:
as §1, §2, §3, §4, §5, §6

The structures appear in SMILES notation. Where “and” joins values, the source holds several entries; their conditions need not be identical. Equal entries are not always repeated. Where two headings read alike, the source gives them in different places.

T3 sequence (P28223 whole entry): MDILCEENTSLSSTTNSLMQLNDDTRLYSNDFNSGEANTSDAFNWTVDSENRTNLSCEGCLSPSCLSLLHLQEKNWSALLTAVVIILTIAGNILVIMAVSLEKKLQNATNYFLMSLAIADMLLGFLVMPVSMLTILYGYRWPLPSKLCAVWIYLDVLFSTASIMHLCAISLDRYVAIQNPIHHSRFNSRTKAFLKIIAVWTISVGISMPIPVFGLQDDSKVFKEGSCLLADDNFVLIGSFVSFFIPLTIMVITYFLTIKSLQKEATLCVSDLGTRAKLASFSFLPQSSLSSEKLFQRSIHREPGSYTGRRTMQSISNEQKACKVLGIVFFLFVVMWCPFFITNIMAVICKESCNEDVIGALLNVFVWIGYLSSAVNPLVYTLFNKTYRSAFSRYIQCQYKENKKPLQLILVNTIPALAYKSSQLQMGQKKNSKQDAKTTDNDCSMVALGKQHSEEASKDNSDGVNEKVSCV
T5 sequence (P32238 whole entry): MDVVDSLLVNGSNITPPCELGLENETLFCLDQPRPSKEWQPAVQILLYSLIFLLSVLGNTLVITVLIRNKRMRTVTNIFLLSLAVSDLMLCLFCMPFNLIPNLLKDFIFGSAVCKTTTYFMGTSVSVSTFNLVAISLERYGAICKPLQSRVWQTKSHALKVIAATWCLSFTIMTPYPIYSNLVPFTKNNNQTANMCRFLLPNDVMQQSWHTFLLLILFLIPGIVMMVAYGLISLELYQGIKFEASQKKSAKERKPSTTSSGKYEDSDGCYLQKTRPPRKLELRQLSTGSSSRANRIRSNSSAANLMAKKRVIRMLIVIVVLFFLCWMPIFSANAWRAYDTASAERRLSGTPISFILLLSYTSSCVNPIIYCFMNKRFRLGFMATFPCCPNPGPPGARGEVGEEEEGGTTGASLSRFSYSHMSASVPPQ
T1 sequence (P41143 whole entry): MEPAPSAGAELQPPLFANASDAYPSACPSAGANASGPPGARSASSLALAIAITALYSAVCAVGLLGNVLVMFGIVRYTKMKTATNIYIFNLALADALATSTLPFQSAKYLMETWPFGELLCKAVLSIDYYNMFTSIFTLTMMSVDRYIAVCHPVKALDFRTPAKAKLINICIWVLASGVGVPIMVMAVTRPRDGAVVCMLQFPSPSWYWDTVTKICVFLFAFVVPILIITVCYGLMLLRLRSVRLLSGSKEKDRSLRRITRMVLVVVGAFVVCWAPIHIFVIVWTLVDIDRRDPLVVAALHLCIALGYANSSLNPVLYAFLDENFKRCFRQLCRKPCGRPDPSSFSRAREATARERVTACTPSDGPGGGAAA

For orientation: inhibition means the relative decrease from the control value, in per cent. For orientation: % Inhibition means the relative decrease from the control value, in per cent. Consider `COCCOCCO[C@@H]1[C@@H](OP(=O)(O)O)[C@H](OCCOCCOC)[C@@H](OP(=O)(O)O)[C@@H](OP(=O)(O)O)[C@H]1OP(=O)(O)O` [(OEG2)2-IP4, 4,6-Di-O-(methoxy-diethyleneglycol)-myo-inositol-1,2,3,5-tetrakis(phosphate)], for which the inhibition at 10 µM on Opiate δ1 (OP1, DOP) is -2%; against Dopamine D2L, -10%; in series [3] it was -1%; at Cannabinoid CB1, -7%; in [4], 6%; at Angiotensin AT1, 0%. Also, the inhibition at 10 µM in series [5] came to 8%; on PPARγ, 2%; in [7] it was 2%. Further, the “change of 18F-NaF uptake vs vehicle” value in series [1] (8.6 μM in human serum) is on record as −38%. The “maximum average 18F binding (18F-NaF-PET)” value in series [1] (IC90 concentration in human serum, individual samples Fig. 3j, unit not given) was 319.764 and 464.582 and 653.422 and 447.312 and 563.189 and 486.153 and 450.235. Further, the “increase in TNFα levels in supernatants” value in [2] was “not observed”. In addition, the “% Inhibition” value with Glutamate, NMDA, Agonism is listed as 7%. Besides, the “intact dose recovered in the urine of healthy rats” value in series [6] is listed as “Forty percent”. Also, the “Cumulative recovery from rat urine” value in series [6] (2 h, individual rats Fig. 4j) was 21.7% and 21.3% and 24.6% and 20.5%; in series [6] (8 h), 49% and 34.7% and 40.7% and 37.3% and 32.9%; in series [6] (24 h), 52.9% and 39.5% and 42.5% and 38.2% and 34.7%. For the same compound, the dose excreted in series [6] (2 h, individual rats Fig. 4j) worked out at 26.7%; in [6] (8 h), 29.8%; in [6] (24 h), 34.4%.
